Test results taken from patent US7326680B1, “Uterine contraction inhibitors” (Shionogi & Co., Ltd., priority 1999, dated 2008).
pIC50: −log10 of the molar value. Bridge positions count the residues as written; N and C are the ends. Ends that are not written are not given here.

Assays:
uterine strips = assay: Stimulation of contraction of uterine strips from rats not treated with estrogen; format: cell-based, rat; settings: 1 nM oxytocin, 1 μM PGF2α or 10 nM bradykinin
Description: (§1) In another experiment, rats without injection of 17β-estradiol were used. The effect of 100 nM AM on uterine contraction induced by 10 nM bradykinin, 1 nM oxytocin, or 1 μM PGF2α was tested in the presence or absence of 1 μM AM[22-52] or 1 μM CGRP[8-37].

[1] = test system: bradykinin-induced contraction of rat uterine strips; assay: Bradykinin-induced contraction of isolated rat uterine strips; format: cell-based; settings: 10 nM bradykinin; for effect on the inhibitory effect of AM on bradykinin-induced contraction: preliminary addition of 1 μM antagonist
Description: In a manner similar to that of Example 1, uterine strips were prepared and attached to an isotonic transducer in a modified KRB solution. At the time when 10 nM bradykinin (Peptide Institute, Inc.) was added to the modified KRB solution, myometrial contraction was continuously measured. 20 minutes after the addition of bradykinin, 100 nM AM or distilled water was further added.
as §1
(§2) In all measurements, the uterine strips were eventually contracted due to 45 mM KCl depolarization to confirm responses of the myometrium. The results are shown in FIGS. 6(a) to 6(f) and FIGS. 7(a) to 7(e).

[2] = test system: spontaneous myometrial contraction of rat uterine strips; assay: Spontaneous contraction of isolated uterine strips from 17β-estradiol-treated female rats (isotonic transducer); format: cell-based; settings: for effect on the contraction inhibitory effect of 1 to 100 nM AM (spontaneous contraction): 1 μM preliminary addition; for effect of the antagonist per se on spontaneous contraction: 1 μM, preliminary addition (15 min preincubation)
Description: 1 μg of 17β-estradiol in 0.2 ml of 30% ethanol was subcutaneously injected to 10 to 12 week old female rats.
On the following day, the rats were sacrificed by hammering their heads. Thereafter, the rats were decapitated, followed by exsanguination. The uteri were isolated from the rats. Each isolated uterus was cut into four fragments a to d (FIG. 1(A)). Portions of each strip to which blood vessels were attached were cut off, thereby obtaining uterine strips (FIG. 1(B)).
The effect of AM on the rat uterus was examined by measuring contractions of the uterine strips using an isotonic transducer TD-112S (manufactured by Nippon Kohden Corporation) where the tension was 1 g.
While the uterine strip was immersed in 30 ml of a modified Krebs-Ringer bicarbonate (KRB) solution with glucose) (hereinafter simply referred to as “modified KRB solution”), the uterine strip was attached to the isotonic transducer. The composition of the modified KRB solution is as follows: 122 mM NaCl, 26 mM NaHCO3, 5 mM KCl, 1 mM MgSO4.7H2O, 0.03 mM EDTA-2Na, 2.4 mM CaCl2, and 11 mM glucose; pH 7.4).
(§3) Myometrial contraction was continuously measured. After spontaneous rhythm of the uterine muscle was confirmed to be constant, 30 μl of 10^−4 M AM (experimental sample) or distilled water (control sample) was added to the respective modified KRB solution with glucose, where the concentration of AM was 100 nM. 30 minutes after the addition of AM or distilled water, 300 μl of 4.5 M KCl was added to make a KCl concentration of 45 mM.
In a manner similar to that of Example 1, uterine strips were prepared, and attached to an isotonic transducer in a modified KRB solution. Myometrial contraction was continuously measured. After it was confirmed that the spontaneous rhythm of uterine muscle became constant, 30 μl of 1×10^−6, 2×10^−6, 7×10^−6, 2×10^−5, or 7×10^−5 M AM (experimental samples), or distilled water (control sample) was added to the modified KRB solution at time 0 min (initial addition), 5 min later, 12 min later, 22 min later, and 32 min later, where AM concentrations were 1, 3, 10, 30, and 100 nM, respectively. Thereafter, after 45 minutes from the initial addition of AM or distilled water, 300 μl of 4.5 M KCl was added to the solution to be a KCl concentration of 45 mM.
8 to 12 weeks old female rats were used to prepare uterine strips in a manner similar to that of Example 1.
Thereafter, the uterine strip was placed in a tissue chamber filled with 30 ml of a modified KRB solution with aeration of 95% O2/5% CO2 at 37° C. to measure contraction of the uterine strip in a manner similar to that of Example 1. After 40 minutes of equilibrium, the uterine strip was preincubated for 15 minutes in the presence or absence of 1 μM AM[22-52] or 1 μM CGRP[8-37]. Thereafter, AM was added to the modified KRB solution in the tissue chamber to gradually increase the AM concentration from 1 nM to 100 nM, exposing the uterine strip to AM.

[3] = test system: galanin-induced tonic contraction of the uterus; settings: Reference 7; cited from earlier work
[4] = test system: oxytocin-induced contraction of rat uterine strips; assay: Oxytocin-induced contraction of isolated rat uterine strips; format: cell-based; settings: 100 nM AM, 1 nM oxytocin, rats not treated with estrogen
Description: as §1, with “CGRP[8-37]. In all measurements, the uterine strips were eventually contracted due to 45 mM KCl depolarization to confirm responses of the myometrium. The results are shown in FIGS. 6(a) to 6(f) and FIGS. 7(a) to 7(e).” for “CGRP[8-37].”

[5] = test system: muscle contraction due to activation of voltage-dependent Ca channels (45 mM KCl); assay: 45 mM KCl depolarization-induced contraction of rat uterine strips; format: cell-based; settings: 100 nM AM, KCl added 30 min after AM
Description: as §3, §2

[6] = test system: PGF2α-induced contraction of rat uterine strips; assay: PGF2α-induced contraction of isolated rat uterine strips; format: cell-based; settings: 100 nM AM, 1 μM PGF2α, rats not treated with estrogen
Description: as §1, with “CGRP[8-37]. In all measurements, the uterine strips were eventually contracted due to 45 mM KCl depolarization to confirm responses of the myometrium. The results are shown in FIGS. 6(a) to 6(f) and FIGS. 7(a) to 7(e).” for “CGRP[8-37].”

CC[C@H](C)[C@@H]1NC(=O)[C@H](Cc2ccc(O)cc2)NC(=O)[C@@H](N)CSSC[C@@H](C(=O)N2CCC[C@H]2C(=O)N[C@@H](CC(C)C)C(=O)NCC(N)=O)NC(=O)[C@H](CC(N)=O)NC(=O)[C@H](CCC(N)=O)NC1=O [oxytocin]
stimulation of uterine contraction (uterine strips): significantly stimulated contraction

AM[22-52]: an antagonist for an AM receptor (TVQKLAHQIYQFTDKDKDNVAPRSKISPQGY; ends and bridges not checked; UniProt P35318 116-146, looked up, fragment) [reference compound]
effect on the inhibitory effect of AM on bradykinin-induced contraction ([1]; 100 nM AM): eliminated | effect on the contraction inhibitory effect of 1 to 100 nM AM (spontaneous contraction) [2]: substantially completely prevents | effect of the antagonist per se on spontaneous contraction [2]: had no effect

CGRP[8-37]: an antagonist for a CGRP receptor (VTHRLAGLLSRSGGVVKNNFVPTNVGSKAF; ends and bridges not checked; UniProt P06881 90-119, looked up, fragment) [reference compound]
effect on the action of AM on galanin-induced tonic contraction [3]: eliminated | effect on the inhibitory effect of AM on bradykinin-induced contraction ([1]; 100 nM AM): eliminated | effect on the contraction inhibitory effect of 1 to 100 nM AM (spontaneous contraction) [2]: substantially completely prevents | effect of the antagonist per se on spontaneous contraction [2]: had no effect

YRQSMNQGSRSTGCRFGTCTMQKLAHQIYQFTDKDKDGMAPRNKISPQGY-NH2 (disulfide 14-19; C-terminus assumed) [AM]
effect on contraction induced by oxytocin [4]: almost no effect | effect on contraction caused by 45 mM KCl [5]: does not affect | concentration at which galanin-induced tonic contraction of the uterus was inhibited [3]: ≥ 5 µM | effect on contraction induced by PGF2α [6]: almost no effect | effect on bradykinin-induced contraction ([1]; 100 nM AM added 20 min later, estradiol-treated rats, Example 3): inhibited | effect on bradykinin-induced contraction ([1]; 100 nM AM, rats not treated with estrogen, Example 4): completely blocked | effect on spontaneous myometrial contraction ([2]; 100 nM AM, Example 1, FIGS. 2(c), 2(d)): significantly inhibited | effect on spontaneous myometrial contraction, cumulative concentrations ([2]; 1, 3, 10, 30, 100 nM AM, Example 2, FIGS. 3(a), 3(b)): inhibited by the addition of AM in a concentration-dependent manner | pIC50 ([2]; AM 1 to 100 nM, estradiol-treated rats, Example 4, read-out: IC50 of inhibition of spontaneous contraction): 7.64 | reversibility of the inhibitory effect on spontaneous contraction ([2]; washing out and exchanging the modified KRB solution after 100 nM AM): could be reversed

prostaglandin F2α [PGF2α]
stimulation of uterine contraction (uterine strips): significantly stimulated contraction
